{"source": "patent US8685976B2", "about": "“Cell adhesion promoting agent and method of promoting cell adhesion” (Kyoto University, priority 2008, dated 2014)", "key": {"Jurkat cells [1]": {"test_system": "Jurkat cells", "assay": "Cell adhesion assay by addition, Jurkat cells", "format": "cell-based, human", "procedure": "1 μL each of an aqueous solution of adhesamine (1), Type I collagen, poly-L-lysine hydrochloride, poly-L-ornithine hydrobromide, and fibronectin at a concentration of 50, 500, and 5000 μg/ml, was added to 96-well plate. 100 μL of HepG2 suspension (4×10^5 cells/mL) was added to each well. After 3-hour incubation at 37° C., non-adherent cells were removed by washing each well with PBS three times, and the attached cells were counted with a Neubauer counting chamber (Digital Bio). For Jurkat cells, 100 μL of cell suspension was added to each well at a density of 1×10^6 cells/ml. After 5-hour incubation at 37° C., non-adhered cells were removed by washing each well with PBS twice, and the attached cells were counted with a Neubauer counting chamber (Digital Bio). To calculate adhesion rates, firstly seeded cell numbers were assigned a value of 100%. As control tests, the same tests were conducted using wells supplied with only 1 μL of DMSO. Each assay was conducted in triplicate, and the means and standard derivations were calculated.\nThe comparison between adhesamine and its derivatives regarding cell adhesion promotion activity was conducted using Jurkat cells by way of reagent addition assay. 1 μL each of DMSO solutions of the compounds having concentrations of 60, 600, and 6000 μM were added to 96-well plates. The wells were supplied with 100 μL each of Jurkat cell suspensions (1×10^6 cells/mL). After 5-hour incubation at 37° C., non-adhered cells were removed by washing each well with PBS twice, and the attached cells were counted with a Neubauer counting chamber (Digital Bio). To calculate adhesion rates, firstly seeded cell numbers were assigned a value of 100%. As control tests, the same tests were conducted using well plates supplied with only 1 μL of DMSO. Each assay was conducted in triplicate, and the means and standard derivations were calculated.\nHowever, since HepG2 cells have an intrinsic propensity to adhere to plastic tissue-culture plates, a test was conducted to determine whether the same effect was also obtained in the Jurkat cell line and human T-lymphocytes that are floating cells. Remarkably, 30% and 60% of the Jurkat cells attached to a culture plate in the presence of 6 and 60 μM of adhesamine, respectively (FIG. 1D). Removal of adhesamine by washing the plate twice with PBS detached the cells. 93% of Jurkat cells were released from the surface of a culture plate 24 hour after washing (FIG. 2). […] Simply adding adhesamine to the medium promoted adhesion of Jurkat cells onto culture plates, but not to each other."}, "HepG2 cells": {"test_system": "HepG2 cells", "assay": "Visualization of actin cytoskeleton with rhodamine-conjugated phalloidin, HepG2", "format": "cell-based", "conditions": "HepG2, 6 μM", "procedure": "(§1) In (A) and (B), the cell growth was determined at 24, 48, and 72 hours after the addition of adhesamine (1) (6 μM). The cell growth in the presence of 1% (v/v) DMSO was assigned a value of 100%. The data shown are means±SD for a minimum of three experiments. (C) to (F) show the rearrangement of actin filaments in HepG2 and Jurkat cells in the presence of adhesamine (6 μM). Brightfield images (C and D) and confocal images (E and F) are shown. HepG2 (C and E) or Jurkat (D and F) cells were plated for 5 hours or 3 hours, respectively, and actin cytoskeletal was visualized using rhodamine-labeled phalloidin.\n(§2) Jurkat or HepG2 cells were plated onto glass coverslips in the presence of adhesamine (6 μM). They were fixed after 5 or 3 hours, respectively, with 4% paraformaldehyde for 20 minutes. The cell membrane was permeabilized by 5-min treatment with 0.1% Triton X-100 (in PBS). Samples were washed twice with PBS, and actin cytoskeleton was visualized with rhodamine-conjugated phalloidin according to the manufacturer's instructions (Invitrogen). The cell images were captured with a Yokogawa CSU22 confocal fluorescence microscope with 588-nm laser excitation."}, "Jurkat cells [2]": {"test_system": "Jurkat cells", "assay": "Visualization of actin cytoskeleton with rhodamine-conjugated phalloidin, Jurkat", "format": "cell-based, human", "conditions": "6 μM", "procedure": "as §1, §2"}, "CHO 745 cells": {"test_system": "CHO 745 cells", "assay": "Cell adhesion assay, CHO 745", "format": "cell-based", "conditions": "CHO 745, 6 μM, vs parental CHO-K1", "procedure": "(§3) (A) and (B) show CHO-K1 (wild-type) cells incubated with 1% (v/v) DMSO (A) or 6 μM adhesamine (B). (C) and (D) show CHO 677 incubated with 1% (v/v) DMSO (A) or 6 μM adhesamine (B). […] Cells were seeded onto adhesamine-added or fibronectin-coated plastic wells. The concentrations of adhesamine and fibronectin were 6 μM and 5 μg/mL, respectively. Adhered cells were counted at 5 hours after seeding. Each point represents average±SD.\n(§4) For CHO wild-type and CHO mutant cell lines, 100 μL of trypsinized cell suspension in a culture medium was added to each well at a density of 2×10^5 cells/mL. After 5-hour incubation at 37° C., non-adhered cells were removed by washing each well with PBS twice, and the attached cells were counted with a Neubauer counting chamber (Digital Bio). To calculate adhesion rates, the cell numbers before washing were assigned a value of 100%. Each assay was conducted in triplicate, and the means and standard derivations were calculated for a minimum of three independent experiments."}, "CHO 677 cells": {"test_system": "CHO 677 cells", "assay": "Cell adhesion assay, CHO 677", "format": "cell-based", "conditions": "CHO 677, 6 μM, vs parental CHO-K1", "procedure": "as §3, §4"}, "CHO 606 cells": {"test_system": "CHO 606 cells", "assay": "Cell adhesion assay, CHO 606", "format": "cell-based", "conditions": "CHO 606, 6 μM", "procedure": "as §3, §4"}, "CHO F17 cells": {"test_system": "CHO F17 cells", "assay": "Cell adhesion assay, CHO F17", "format": "cell-based", "conditions": "CHO F17, 6 μM", "procedure": "as §3, §4"}, "Jurkat cells [3]": {"test_system": "Jurkat cells", "assay": "Cell adhesion assay by coating", "format": "cell-based, human", "conditions": "50 μg/well", "procedure": "The surface area per well is 0.3 cm^2.\nThe assay samples (adhesamine (1), Type I collagen, poly-L-lysine hydrochloride, poly-L-ornithine hydrobromide, and fibronectin) were adjusted in concentration by being diluted with 10 mM PBS containing 1% DMSO. […] Thereafter, the wells were washed with Milli-Q water twice. 100 μL of Jurkat cell suspension (1×10^6 cells/mL) was added to each of coated wells. After 5-hour incubation at 37° C., non-adhered cells were removed by washing each well with PBS twice, and attached cells were counted with a Neubauer counting chamber (Digital Bio)."}, "Jurkat cells [4]": {"test_system": "Jurkat cells", "assay": "Microinjection of Alexa Fluor 594", "format": "cell-based, human", "conditions": "5 μg/mL reagent", "procedure": "The concentration of the reagents used was 5 μg/mL.\nThe solutions of adhesamine (1), Type I collagen, poly-L-lysine hydrochloride, and fibronectin were prepared by diluting with PBS containing 1% (v/v) DMSO. 10 μL of each solution (1 mg/mL) was added to glass bottom culture dishes (35 mm uncoated dish). 2 mL of cell suspension in a culture medium was added to each well at a density of 2×10^5 cells/mL. After 14-hour incubation at 37° C., Alexa Fluor 594 (Molecular Probes, USA) at a concentration of 5 mg/mL was injected into Jurkat cells by using a CI-2000 automated cell injection system (Fujitsu, Japan). Success rates of the microinjection were evaluated by direct observation of the fluorescent cells through a fluorescent-microscopic window of the injection system. The data shown are means±SD for a minimum of three experiments. 20 cells were injected in each experiment."}}}
{"smiles": "CSc1nc(Cl)c(C=O)c(N2CC[N+]3(CC2)CC[N+]2(CCN(c4nc(SC)nc(Cl)c4C=O)CC2)CC3)n1", "note": "[adhesamine]", "values": [{"measurement": "Jurkat cells attached to a culture plate", "setting": "Jurkat cells [1]; 6 μM in medium", "result": 30, "unit": "%"}, {"measurement": "Jurkat cells attached to a culture plate", "setting": "Jurkat cells [1]; 60 μM in medium", "result": 60, "unit": "%"}, {"measurement": "cell attachment on addition to the medium, compared with coating reagents", "setting": "Jurkat cells [1]; FIG. 12", "result": "significantly greater attachment than addition of the other coating reagents"}, {"measurement": "cell-cell adhesion", "setting": "Jurkat cells [1]; added to the medium", "result": "did not induce"}, {"measurement": "actin cytoskeleton structure in adhered cells", "setting": "HepG2 cells", "result": "Actin filament bundles ran in parallel to the cell axis or through cell processes"}, {"measurement": "actin cytoskeleton structure in adhered cells", "setting": "Jurkat cells [2]", "result": "well-organized cortical actin structure"}, {"measurement": "response of cell adhesion to adhesamine", "setting": "CHO 745 cells", "result": "less responsive"}, {"measurement": "response of cell adhesion to adhesamine", "setting": "CHO 677 cells", "result": "less responsive"}, {"measurement": "response of cell adhesion to adhesamine", "setting": "CHO 606 cells", "result": "less responsive"}, {"measurement": "response of cell adhesion to adhesamine", "setting": "CHO F17 cells", "result": "responded"}, {"measurement": "cell attachment when applied as coating, compared with coating reagents", "setting": "Jurkat cells [3]", "result": "greater effect than fibronectin, poly-L-lysine, and poly-L-ornithine"}, {"measurement": "effect on microinjection success", "setting": "Jurkat cells [4]", "result": "more than type I collagen, poly-L-lysine hydrochloride, and fibronectin"}, {"measurement": "microinjection success rates", "setting": "Jurkat cells [4]", "result": "≤ 80", "unit": "%"}]}
